Reference: paper PMC12429696, “The Neurotropic Activity of Novel Dermorphin Analogs Active in Systemic and Noninvasive Administration” (International Journal of Molecular Sciences, 2025)
“Also recorded” adds a separate entry of the source. Square brackets hold non-standard residues; d marks the D form. Ends that are not written are not given here.

Assays:
[1] = test system: isolated preparations of guinea pig ileal smooth muscle; assay: Opioid activity on electrically stimulated isolated guinea pig ileum (GPI); assay type: cell-based; conditions: inhibition of electrically stimulated contractions of GPI segment, Krebs solution 34 °C, 10^−9 to 10^−6 M, tests in duplicate
Text: Dermorphin analogs have been tested using the standard guinea pig ileum (GPI) model, The GPI is rich in µ-opioid receptors. Ten peptides were suppressed via electrical stimulation contractions of segment GPI in the studied concentration range (10^−9 to 10^−6 M) (Table 1).
The opioid receptor antagonist naloxone (10^−6 M) prevented or weakened the action of the compounds under investigation, confirming the opioid mechanism of their action. […] Thus, new dermorphin analogs can be agonists of µ-type opioid receptors. However, this needs to be verified using molecular modeling methods in further research. Attila M. et al. (1993) investigated the potential binding of 16 dermorphin analogs to µ and δ opioid receptors in brain cells.
The peripheral opioid activity of the peptides was assessed according to known methodology. A segment of guinea pig ileum (approximately 1 cm long) was placed into a 10 mL organ bath containing Krebs solution at 34 °C. Single pulses stimulated the segment of the ileum (1 g) with a duration of 1 ms and a frequency of 0.1 Hz at 80 V. Contractions were recorded in isometric mode using a K30 sensor (Hugo Sachs Elektronic KG, March, Germany).
All tests for each molecule were performed in duplicate. Based on the data obtained, dose-effect curves were plotted, and the IC50 index was determined as the concentration of the substance that causes 50% of the maximal inhibitory effect.

mice [2] = assay: Tail-flick test (radiant heat) in mice; assay type: in vivo; conditions: 50 mg/kg; for analgesic action in tail-flick test: 30 and 60 min after administration
Text: (§1) Two tests, “tail-flick” and “hot plate,” were used to evaluate the analgesic action of peptides administered intraperitoneally and intra-gastrically.
The pain stimulus was applied locally to the tail as radiant heat using a Tail Flick Analgesia Meter (Hugo Sachs Elektronik, Germany). A tail-flick latent period of 6 s was considered the maximum time for applying the stimulus (Equation (1): tmax—6 s, maximal duration of pain stimulus).
(§2) The control groups consisted of mice injected with solvent. The tested substances were administered to the animals intraperitoneally and intragastrically in a volume of 0.1 mL of saline per 10 g of body weight. The pain response threshold was measured before and 30 and 60 min after administration.
(§3) In both tests, the final indicator of analgesic action was defined as a 50% or more significant effect on the number of animals in each experimental group, expressed as a percentage of the total number of animals in that group. […]

mice [3] = assay: Hot plate test in mice; assay type: in vivo; conditions: 50 mg/kg, 30 and 60 min after administration
Description: as §1, §2
The “hot plate” test evaluates the pain reaction to thermal irritation of the mouse paw. The Hot Plate Model 7280 (Ugo Basile S.R.L., Gemonio, Italy) analgesimeter was used for this test. The maximal duration of the pain stimulus (thermal irritation) was set at 60 s.
as §3

rats [4] = assay: Water immersion tail-flick test in rats; assay type: in vivo, Wistar rats; conditions: for duration of analgesic effect: intraperitoneal, 5 mg/kg, water tail-flick 56 °C
rats [5] = assay: Open field test in rats with intranasal administration; assay type: in vivo, Wistar rats; conditions: n = 7, open field 2 min
Description: The experiments were conducted in an automated “open-field” chamber that registered and processed computer data. They were conducted in two replicates on 64 male Wistar rats weighing 240–260 g. The “open-field” is a round arena with a diameter of 80 cm, lined with three concentric circles and eight diameters. During the experiment, the rat was placed in the center of the arena. Motor activity (measured as the number of segments passed), the number of departures from the arena wall, vertical activity (the number of rises on the hind legs), and the number of touches of the muzzle with the paws (washing) were visually assessed for two minutes. A 500-watt household electric bell and a 15-watt red lamp were placed 80 cm above the arena. The study was conducted in silence and under the light of the red lamp.
Animals were divided into groups: untrained intact animals and trained experimental animals. All animals were divided into five groups: • In the intact group, animals without training were injected with 0.05 mL of physiological solution one minute before being placed in the “open field.” (n = 33). • The control group consisted of animals adapted after a 5-day administration of 0.5 mL of saline (n = 10). • Single drug action at a 15 μg/kg dose was administered to adapted animals (n = 7). • Adapted animals (n = 7) received a 50 μg/kg dose of a single drug action. • Single drug action at a 150 μg/kg dose was administered to adapted animals (n = 7).

µ-opioid receptors = test system: µ-opioid receptors; parameters: method as in PMID 3033543; conditions: cited from earlier work
δ-opioid receptors = test system: δ-opioid receptors; parameters: method as in PMID 3033543; conditions: rat brain; cited from earlier work
κ receptors = test system: κ receptors; parameters: method as in PMID 3033543; conditions: rat brain; cited from earlier work
[6] = intracerebroventricular, 1.0 μg/kg

## RY[dA]FG-OH (N-terminus assumed; SMILES C[C@@H](NC(=O)[C@H](Cc1ccc(O)cc1)NC(=O)[C@@H](N)CCCNC(=N)N)C(=O)N[C@@H](Cc1ccccc1)C(=O)NCC(=O)O) [D8]
[1]
  Index IC50: 3000 nM

## Cyclo-[L-Lys(H-Tyr-D-Ala-Phe-D-Ala-Tyr-Pro-Ser)-L-Glu(L-Trp-OH)] (head to tail) [D4]
[1]
  Index IC50: 11 nM
Mice [2]; intragastric
  analgesic action in tail-flick test: active after 30 and 60 min
Mice [2]; intraperitoneal
  analgesic action in tail-flick test: high analgesic activity
Mice [3]; intragastric
  analgesic action in hot plate test: no significant analgesic effect
Mice [3]; intraperitoneal
  analgesic action in hot plate test: moderately active; also recorded: active as tramadol

## H-Y[dA]F[dA]-OH (SMILES C[C@@H](NC(=O)[C@H](Cc1ccccc1)NC(=O)[C@@H](C)NC(=O)[C@@H](N)Cc1ccc(O)cc1)C(=O)O) [D10, reference compound]
[1]
  Index IC50: 1000 nM

## COc1cccc(C2(O)CCCCC2CN(C)C)c1 (stereo not shown) [tramadol, reference compound]
Mice [2]; intragastric
  analgesic action in tail-flick test: active
Mice [3]; intragastric
  analgesic action in hot plate test: no significant analgesic effect

## Cyclo-[L-Lys(H-Tyr-D-Ala-Phe-D-Ala-Tyr-Pro-Ser)-L-Glu(L-Trp-NH2)] (head to tail) [D3]
[1]
  Index IC50: 33 nM
Mice [2]; intragastric
  analgesic action in tail-flick test: active after 30 and 60 min
Mice [2]; intraperitoneal
  duration of activity in tail-flick test: 60 min
  analgesic action in tail-flick test: high analgesic activity
Mice [3]; intragastric
  analgesic action in hot plate test: no significant analgesic effect
Mice [3]; intraperitoneal
  analgesic action in hot plate test: highest activity for 60 min; also recorded: active as tramadol

## H-RY[dA]F[dA]-OH (SMILES C[C@@H](NC(=O)[C@H](Cc1ccccc1)NC(=O)[C@@H](C)NC(=O)[C@H](Cc1ccc(O)cc1)NC(=O)[C@@H](N)CCCNC(=N)N)C(=O)O) [D9]
[1]
  Index IC50: 1000 nM

## H-Y[dA]F[dA]YPS-NHMe (SMILES CNC(=O)[C@H](CO)NC(=O)[C@@H]1CCCN1C(=O)[C@H](Cc1ccc(O)cc1)NC(=O)[C@@H](C)NC(=O)[C@H](Cc1ccccc1)NC(=O)[C@@H](C)NC(=O)[C@@H](N)Cc1ccc(O)cc1) [D2]
[1]
  Index IC50: 9.5 nM
Rats [4]; [6]
  analgesic effect: potent analgesia
  observed side effects: severe muscle tension, and numbness
Rats [4]; intracerebroventricular, 2.5 μg/kg
  observed side effects: complete immobility and catatonic effects
Rats [4]; intracerebroventricular, 2.5 μg/kg, n = 7
  analgesic effect (A): 100%
Rats [4]; intranasal, 0.5 µg/kg
  observed side effects: short-term state of stupor
Rats [4]; intranasal, 1.0 µg/kg
  analgesic effect: maximum long-lasting analgesia
  observed side effects: complete stupor
Rats [4]
  duration of analgesic effect: up to 5 h
Rats [5]; 15 µg/kg
  Defecation: 0.92 ± 0.26
  Dive: 6.17 ± 1.63
  Grooming: 1.58 ± 0.42
  Path: 23.83 ± 7.16
  Stand: 8.83 ± 3.03
  Urination: 0.25 ± 0.13
Rats [5]; 50 µg/kg
  Defecation: 1.10 ± 0.18
  Dive: 3.40 ± 0.76
  Grooming: 0.90 ± 0.46
  Path: 21.80 ± 6.16
  Stand: 4.50 ± 1.35
  Urination: 0.20 ± 0.13
Rats [5]; 150 µg/kg
  Defecation: 0.60 ± 0.22
  Dive: 2.90 ± 0.99
  Grooming: 1.00 ± 0.39
  Path: 14.80 ± 3.80
  Stand: 4.70 ± 1.45
  Urination: 0.10 ± 0.10
Mice [2]; intragastric
  analgesic action in tail-flick test: active in the “tail-flick” test only 30 min after administration
Mice [3]; intragastric
  analgesic action in hot plate test: no significant analgesic effect
Mice [3]; intraperitoneal
  analgesic action in hot plate test: significant activity only at 30 min; also recorded: active only for 30 min

## H-Y[dA]F[dA]YPS-OH (SMILES C[C@@H](NC(=O)[C@H](Cc1ccccc1)NC(=O)[C@@H](C)NC(=O)[C@@H](N)Cc1ccc(O)cc1)C(=O)N[C@@H](Cc1ccc(O)cc1)C(=O)N1CCC[C@H]1C(=O)N[C@@H](CO)C(=O)O) [D5]
[1]
  Index IC50: 760 nM

## Cyclo-[L-Lys(H-Tyr-D-Ala-Phe-D-Ala)-L-Glu(OH)] (head to tail) [D6]
[1]
  Index IC50: 570 nM

## Cyclo-[L-Lys(H-Tyr-D-Ala-Phe-D-Ala)-L-Glu-(L-TrpOMe)] (head to tail) [D7]
[1]
  Index IC50: 2000 nM

## H-Tyr-D-Ala-Phe-Gly-Tyr-Pro-Ser-NH2 [D1, reference compound]
[1]
  Index IC50: 2.5 nM
Rats [4]
  duration of analgesic effect: approximately 1 h
Mice [2]; intragastric
  analgesic action in tail-flick test: did not exhibit analgesic action
Mice [2]; intraperitoneal
  duration of activity in tail-flick test: 60 min
Mice [3]; intragastric
  analgesic action in hot plate test: did not exhibit analgesic action
Mice [3]; intraperitoneal
  analgesic action in hot plate test: active as tramadol
µ-opioid receptors
  affinity for µ-opioid receptors: very high affinity
δ-opioid receptors
  affinity for δ-opioid receptors: low affinity
κ receptors
  affinity for κ receptors: low affinity
